Measured values: patent US12121515B2, “Piperidine urea derivatives as soluble epoxide hydrolase inhibitors” (NeuroPn Therapeutics, Inc., priority 2021, dated 2024)

Experiments:
[1] = tested on: MPTP induced toxicity on neuronal cells; assay: MPTP induced Parkinsonism in zebrafish, brain pathology (degenerated neurons in mid brain smear); assay type: in vivo; conditions: H&E
Experimental: Fishes were conditioned to consume three pellets a day. […] To prepare fish feed pellets containing L-DOPA 4 μl of 1 ng/μl of L-DOPA stock solution was distributed across 3 fish feed pellets ‘1.3 μl/pellet. Fish were fed, three pellets a day. Concentration of compounds dosed was controlled by number of pellets and the quantity of compound per pellet. Feed pellets without drug but with vehicle were used as placebo or control.
Brain Pathology: Fish were anesthetized with 15° C. water and sacrificed by a cut between the brain and the spinal cord. Brain was dissected and portions of mid brain were removed with a pin and knife. The brain tissue was smeared on a glass slide and stained with Haematoxylin & Eosin respectively for 2 minutes each followed by water washes. Slides were viewed at 45× magnification using Labomed LX 400 microscope. The number of degenerated neurons were counted for three fields per smear. […]

[2] = tested on: MPTP induced Parkinsonism in zebrafish; assay: MPTP induced Parkinsonism in zebrafish, locomotor activity; assay type: in vivo; conditions: adult zebrafish, MPTP model; oral in feed pellets; may reflect L-DOPA-induced dyskinesia; FIG. 4
Experimental: The methodology described by Bretaud et al (Neurotoxicol Teratol. 2004 November-December; 26(6), 857-64) was used to study parkinsonism in zebrafish. For MPTP (1-methyl-4-phenyl-1,2,3,6-tetrahydropyridine) induced Parkinsonism, adult zebrafish were injected with 3 μl of 60 μg/g of MPTP as intramuscular injection along the lateral muscles.
Compound B of Formula I or L-DOPA were dosed orally by mixing with the fish feed pellets. Fishes were conditioned to consume three pellets a day. To prepare feed containing 1 ng of Compound B of Formula I, stock of 1 ng/μl Compound B was diluted to 10 μl in Ringer's solution and distributed to 3 fish feed pellets (‘3.3 μl per pellet). Prior to adding Compound B, fish feed pellets were dried at 37° C. for 1 hour to remove moisture. Post addition of Compound B solution and absorption by the pellet, pellets were stored at 4° C. […] Concentration of compounds dosed was controlled by number of pellets and the quantity of compound per pellet. […]
Locomotor Activity: The observation tank was divided into four zones by drawing three vertical lines at equal distances, at a length of 6.25 cm per zone. The number of lines that adult zebrafish crossed over a period of 5 minutes was counted. Fishes were allowed to acclimatize in measurement tanks for a period of 30 minutes before readings were taken. […]

movement behavior on continued treatment (beyond day 3) [2]: heightened movement behavior
Structure (SMILES): N[C@@H](Cc1ccc(O)c(O)c1)C(=O)O [L-DOPA]
brain pathology (brain smear appearance, effect on MPTP induced toxicity on neuronal cells) ([1]; FIG. 5): did not have significant effect
change in neurodegenerative cell number compared to MPTP group ([1]; day 8, FIG. 5): non-significant decrease
